The values that follow come from US9040714B2 (MannKind Corporation, priority 2010, dated 2015).

In this assay the test system is IRE-1α-mediated XBP-1 splicing in human myeloma MM.1s cells. The assay can be described thus: Cellular EC50: endogenous XBP-1 splicing in myeloma cells by RT-PCR (DTT stress). The assay is classed as cell-based. The note with it: MM1.S, read-out: EC50_av. The procedure:
Human myeloma MM.1s cells are incubated with a compound for 1.25 hours before stressing the cells with 2 mM dithiothreitol (DTT). After an additional 45 minutes (2 hours total) with compound and DTT, the cells are harvested with TRIZOL® (a mono-phasic solution of phenol and guanidine isothiocyanate), and total RNA is prepared as directed by the manufacturer (Invitrogen). Human XBP-1 is amplified by RT-PCR with the following primers, which flank the 26 base unconventional intron excised by IRE-1α:
RT-PCR of unstressed (U) cells then generates the upper band. When cells are stressed (S) with the endoplasmic reticulum (ER) stressing agent DTT, IRE-1α is activated due to accumulating unfolded protein and the resulting RT-PCR, product is 26 base pairs shorter.
Compounds which pass specificity assays are assayed for cellular EC50 using endogenous XBP-1 splicing in myeloma cells. XBP-1 is regulated through the excision of a 26 nucleotide intron from the XBP-1 mRNA by the highly specific endoribonuclease activity of IRE-1α. […] This splicing event is used to measure IRE-1α activity on XBP-1 mRNA in cells and tissues.
Briefly, compounds are incubated in the presence or absence of an ER stress agent (e.g., DTT), and the ratio of XBP-1u (unspliced) to XBP-1 s (spliced) is quantified by RT-PCR. The ED50 is determined as the 50% XBP-1s to total XPB-1 levels.

Setting [1] is: average cellular EC50, XBP-1 splicing in myeloma cells.

Each structure is given as a SMILES string. Structures can show the parent of a compound that is named as a salt. Where two headings read alike, the source gives them in different places.

`CC(=O)NC1CCN(c2ccc3c(C=O)c(O)ccc3n2)C1` (stereo not drawn) [Compound 51]: under setting [1], the EC50 is below 10 µM.
Same read-out and setting: next, `CCNC(=O)CCc1c(C)oc2c(C=O)c(O)c(OC)cc2c1=O` [Example 213]: above 10 µM; `Cc1c(CCC(=O)N2CCN(C)CC2)c(=O)oc2c(C=O)c(O)ccc12` [Example 15]: below 10 µM.
Still for that read-out and setting: for `COC(=O)Cc1cc2c(C=O)c(O)ccc2s1` [Example 264] the value was above 10 µM.
`CCNC(=O)Cc1c(C)c2cc(OCCOC)c(O)c(C=O)c2oc1=O` [Example 191]: under setting [1], the EC50 was below 10 µM.
The same measure, in the same setting: next, `COCc1cc(=O)oc2c(C=O)c(O)cc(OC)c12` [Example 122]: below 10 µM.
On the same count and under the same terms, next, `CN(C)CCNC(=O)c1cc2c(C=O)c(O)ccc2[nH]1` [Example 278]: above 10 µM; `O=Cc1c(O)ccc2nc(-c3cccc(C(=O)N4CCOCC4)c3)ccc12` [Example 43]: below 10 µM; `COCCNC(=O)Cc1c(C)oc2c(C=O)c(O)ccc2c1=O` [Example 220]: below 10 µM.
The same measure, in the same setting: next, `O=Cc1c(O)ccc2[nH]c(C(=O)NCCN3CCOCC3)cc12` [Example 277]: above 10 µM.
`CCNC(=O)CCc1c(C)oc2c(C=O)c(O)ccc2c1=O` [Example 217]: the EC50 under setting [1] was below 10 µM.
Still for that read-out and setting: next, `O=Cc1c(O)ccc2ocnc12` [Example 257]: above 10 µM; `CCNC(=O)CCc1nc2c(C=O)c(O)ccc2o1` [Example 252]: above 10 µM.
Take `O=Cc1c(O)ccc2[nH]c(C(=O)N3CCOCC3)cc12` [Example 274]: the EC50 under setting [1] is above 10 µM.
Still for that read-out and setting: next, `Cc1cc(=O)oc2c(C=O)c(O)c(F)cc12` [Example 23, hydrochloride]: below 10 µM.
The same measure, in the same setting: for `O=Cc1c(O)ccc2sc(C(=O)NCCN3CCOCC3)cc12` [Example 262] the value was below 10 µM; for `CN1CCN(C(=O)CCc2nc3ccc(O)c(C=O)c3n2C)CC1` [Example 239], above 10 µM.
Still for that read-out and setting: next, `CCOC(=O)Cc1c(C)c2c(OCCOC)cc(O)c(C=O)c2oc1=O` [Example 158]: below 10 µM.
Regarding `COCCNC(=O)Cc1c(C)c2cc(OCCOC)c(O)c(C=O)c2oc1=O` [Example 190], the EC50 under setting [1] was below 10 µM.
On the same count and under the same terms, next, `COCCNC(=O)CCc1c(C)oc2c(C=O)c(O)ccc2c1=O` [Example 215]: below 10 µM; `O=Cc1c(O)ccc2nc(-c3cccc(C(=O)N4CCCC4)c3)ccc12`: above 10 µM.
Turning to `O=Cc1c(O)ccc2[nH]c(CCC(=O)N3CCOCC3)nc12` [Example 232], the EC50 under setting [1] is above 10 µM.
For `O=Cc1c(O)ccc2oc(CCC(=O)NCCN3CCOCC3)nc12` [Example 253], the EC50 under setting [1] is below 10 µM.
The same measure, in the same setting: for `COc1cc2c(=O)c(CCC(=O)NCCN(C)C)c(C)oc2c(C=O)c1O` [Example 214] the value was above 10 µM; for `COc1cc2c(=O)c(CCC(=O)NCCN3CCOCC3)c(C)oc2c(C=O)c1O` [Example 93], above 10 µM.
Take `Cc1c(-c2cccc(C(=O)N3CCCC3)c2)c(=O)oc2c(C=O)c(O)ccc12` [Example 21]: the EC50 was above 10 µM.
Turning to `Cc1c(-c2ccc(C(=O)N3CCN(C)CC3)cc2)c(=O)oc2c(C=O)c(O)ccc12` [Example 2], the EC50 under setting [1] is below 10 µM.
Still for that read-out and setting: next, `CCNC(=O)c1cc2c(C=O)c(O)ccc2[nH]1` [Example 276]: above 10 µM.
On the same count and under the same terms, next, `COCCOc1cc(O)c(C=O)c2oc(=O)c(CC(=O)NCCN3CCOCC3)c(C)c12` [Example 163]: below 10 µM; `Cc1c(-c2cccc(C(=O)N3CCOCC3)c2)c(=O)oc2c(C=O)c(O)ccc12` [Example 13]: below 10 µM.
Still for that read-out and setting: for `CN1CCN(C(=O)c2cc3c(C=O)c(O)ccc3s2)CC1` [Example 260] the value was above 10 µM; for `Cc1nc2ccc(O)c(C=O)c2o1` [Example 256], above 10 µM.
For the molecule `CCNC(=O)CCc1cc2c(C=O)c(O)ccc2s1` [Example 269], the EC50 under setting [1] was above 10 µM.
Consider `CCOC(=O)c1cc2c(C=O)c(O)ccc2[nH]1` [Example 279], for which, under setting [1], the EC50 is above 10 µM.
Still for that read-out and setting: next, `CCOC(=O)c1cc2c(C=O)c(O)ccc2o1` [Example 280]: above 10 µM; `CN(C)CCNC(=O)CCc1cc2c(C=O)c(O)ccc2s1` [Example 271]: below 10 µM.
As to `O=Cc1c(O)ccc2nc(N3CCC(NC(=O)CN4CCOCC4)C3)ccc12` (stereo not drawn) [Compound 50], the EC50 was below 10 µM.
Regarding `Cc1oc2c(C=O)c(O)ccc2c(=O)c1CCC(=O)NCCN(C)C` [Example 218], the EC50 under setting [1] is above 10 µM.
The same measure, in the same setting: for `CN1CCN(C2CCN(c3nc4ccc(O)c(C=O)c4s3)C2)CC1` (stereo not drawn) [Example 54] the value was above 10 µM; for `COc1cc(O)c(C=O)c2oc(=O)c(C)c(CN3CCOCC3)c12` [Example 134], below 10 µM.
The same measure, in the same setting: next, `COCCOc1cc(O)c(C=O)c2oc(=O)c(CC(=O)NCCN(C)C)c(C)c12` [Example 164]: above 10 µM.
In the case of `C=CCc1c(C)c2c(OC)cc(O)c(C=O)c2oc1=O` [Example 126], under setting [1], the EC50 was below 10 µM.
Same read-out and setting: for `COc1cc(O)c(C=O)c2oc(=O)c(CCC(=O)NCCN(C)C)c(C)c12` [Example 195] the value was below 10 µM; for `Cn1c(CCC(=O)O)nc2ccc(O)c(C=O)c21` [Example 240], above 10 µM.
For the molecule `O=Cc1c(O)ccc2cc(-c3ccc(Br)cc3)c(=O)oc12` [Example 7], the EC50 is above 10 µM.
Take `COc1cc2c(=O)c(CC(=O)NCCN3CCOCC3)c(C)oc2c(C=O)c1O` [Example 210]: the EC50 under setting [1] is above 10 µM.
The same measure, in the same setting: next, `CN1CCC(NC(=O)CCc2nc3c(C=O)c(O)ccc3[nH]2)CC1` [Example 233]: below 10 µM; `Cc1oc2c(C=O)c(O)ccc2c(=O)c1CC(=O)N1CCOCC1` [Example 221]: above 10 µM; `COCCNC(=O)CCc1c(C)c2cc(OCCN3CCOCC3)c(O)c(C=O)c2oc1=O` [Example 202]: above 10 µM.
On to `COc1cc2c(C)c(Br)c(=O)oc2c(C=O)c1O` [Example 6], for which the EC50 was below 10 µM.
Turning to `O=Cc1c(O)ccc2nc(-c3ccc(C(=O)N4CCCC4)cc3)ccc12` [Compound 48], under setting [1], the EC50 was below 10 µM.
Still for that read-out and setting: next, `COCCNC(=O)CCc1nc2c(C=O)c(O)ccc2n1C` [Example 241]: above 10 µM; `CCNC(=O)CCc1nc2c(C=O)c(O)ccc2n1C` [Example 230]: above 10 µM.
Same read-out and setting: next, `CCOC(=O)CCc1nc2c(C=O)c(O)ccc2n1C` [Example 245]: below 10 µM; `Cc1oc2c(C=O)c(O)ccc2c(=O)c1CC(=O)NCCN(C)C` [Example 224]: above 10 µM; `Cn1c(CCC(=O)NCCN2CCOCC2)nc2ccc(O)c(C=O)c21` [Example 238]: above 10 µM.
For the molecule `COCCOCCc1c(C)c2c(OC)cc(O)c(C=O)c2oc1=O` [Example 145], the EC50 under setting [1] was below 10 µM.
Still for that read-out and setting: for `CCNC(=O)CCc1c(C)c2cc(OCCOC)c(O)c(C=O)c2oc1=O` [Example 183] the value was below 10 µM; for `Cn1c(CCC(=O)NCCN2CCOCC2)nc2c(C=O)c(O)ccc21` [Example 243], above 10 µM.
The same measure, in the same setting: for `Cn1c(CCC(=O)N2CCOCC2)nc2ccc(O)c(C=O)c21` [Example 229] the value was above 10 µM.
